From ChEMBL document CHEMBL1629579, “Correlating echinocandin MIC and kinetic inhibition of fks1 mutant glucan synthases for Candida albicans: implications for interpretive breakpoints” (Antimicrob Agents Chemother, 2009)
Numbered stars: 1 amine (or outer) side, 2 acyl side, 3 side chain; on linkers, the order of the positions; unused ones are H or OH. Bridge positions count the residues as written; N and C are the ends. Square brackets hold non-standard residues; d marks the D form. Peptide text beside a SMILES is read from it. * marks the point of attachment. pTerphenylCO(4''-OnC5H11) = CCCCCOc1ccc(-c2ccc(-c3ccc(C(=O)*)cc3)cc2)cc1; Orn(4R-OH,5R-OH) = O=C([C@H](C[C@@H](O)[C@@H](O)N[*:3])N[*:1])[*:2]; hTyr(3S-OH,4S-OH) = N[C@H](C(=O)O)[C@H](O)[C@@H](O)c1ccc(O)cc1; Pro(3S-OH,4S-Me) = C[C@H]1CN[C@H](C(=O)O)[C@H]1O; Hyp = O=C(O)[C@@H]1C[C@@H](O)CN1

What was measured:
Candida albicans [1] = assay: Selectivity ratio of Ki for Candida albicans 119 1,3-beta-D-glucan synthase subunit FKS1p T1921C mutant to Ki for Candida albicans SC5314 wild type 1,3-beta-D-glucan synthase subunit FKS1p
Candida albicans [2] = assay: Selectivity ratio of Ki for Candida albicans 90 1,3-beta-D-glucan synthase subunit FKS1p G4082R mutant to Ki for Candida albicans SC5314 wild type 1,3-beta-D-glucan synthase subunit FKS1p
Candida albicans [3] = assay: Selectivity ratio of Ki for Candida albicans 122 1,3-beta-D-glucan synthase subunit FKS1p C1946A mutant to Ki for Candida albicans SC5314 wild type 1,3-beta-D-glucan synthase subunit FKS1p

Measured: Ratio Ki

CCCCCOc1ccc(-c2ccc(-c3ccc(C(=O)N[C@H]4C[C@@H](O)[C@@H](O)NC(=O)[C@@H]5[C@@H](O)[C@@H](C)CN5C(=O)[C@H]([C@@H](C)O)NC(=O)[C@H]([C@H](O)[C@@H](O)c5ccc(O)cc5)NC(=O)[C@@H]5C[C@@H](O)CN5C(=O)[C@H]([C@@H](C)O)NC4=O)cc3)cc2)cc1 [ANIDULAFUNGIN] ({pTerphenylCO(4''-OnC5H11)}-[Orn(4R-OH,5R-OH)]T[Hyp][hTyr(3S-OH,4S-OH)]T[Pro(3S-OH,4S-Me)]; lactam 1-C)
> 100: Candida albicans [1] | Candida albicans [2] | Candida albicans [3]
